The values that follow come from PubChem BioAssay (NCI).

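All cell lines were grown in 96-well plates and treated with compound for 48 hours. TGI denotes the concentration required for complete inhibition of growth.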 Where a SMILES comes first, the peptide text is derived from it. The star is where a group is joined. Boc = CC(C)(C)OC(=O)*; OSu = O=C1CCC(=O)N1O*

One experiment has as its system SNB-19 CNS. As to the kind of experiment: growth of human tumour cells (NCI), 48 h.
Consider `[N-]=[N+]=Nc1c(Cl)c(=O)n(-c2ccccc2)c2ccccc12`, for which the TGI was > 100 µM.

For a further experiment, the system named is SN12C renal. In words: growth of human tumour cells (NCI), 48 h.
For the molecule `O=c1[nH]cnc2c(C3OC(CO)C(O)C3O)c[nH]c12` (configuration not stated), the TGI is > 100 µM.
On the same count and under the same terms, the value for `CC(C)=CCN1CC(C)C(=O)Nc2cc(Cl)ccc21` (configuration not stated) was 33 µM; that for `CC(C)(C)OC(=O)NC(Cc1ccc(O)cc1)C(=O)NC(CCCCN)C(=O)NC(Cc1ccc(O)cc1)C(=O)NC(CCCCN)C(=O)ON1C(=O)CCC1=O` (configuration not stated) (Boc-YKYK-OSu; configuration not given here) was > 100 µM; that for `[N-]=[N+]=Nc1c(Cl)c(=O)n(-c2ccccc2)c2ccccc12` was 51.2 µM.

A further experiment deals with HL-60(TB) leukemia. As to the kind of experiment: growth of human tumour cells (NCI), 48 h.
As for `O=c1[nH]cnc2c(C3OC(CO)C(O)C3O)c[nH]c12` (configuration not stated), the TGI is > 100 µM.
Still for that read-out and setting: for `CC(C)=CCN1CC(C)C(=O)Nc2cc(Cl)ccc21` (configuration not stated) the value was > 100 µM.
Same read-out and setting: for `CC(C)(C)OC(=O)NC(Cc1ccc(O)cc1)C(=O)NC(CCCCN)C(=O)NC(Cc1ccc(O)cc1)C(=O)NC(CCCCN)C(=O)ON1C(=O)CCC1=O` (configuration not stated) (Boc-YKYK-OSu; configuration not given here) the value was > 100 µM; for `[N-]=[N+]=Nc1c(Cl)c(=O)n(-c2ccccc2)c2ccccc12`, > 100 µM.

A further experiment concerns OVCAR-4 ovarian. As to the kind of experiment: growth of human tumour cells (NCI), 48 h.
Turning to `O=c1[nH]cnc2c(C3OC(CO)C(O)C3O)c[nH]c12` (configuration not stated), the TGI was > 100 µM.
As to `CC(C)=CCN1CC(C)C(=O)Nc2cc(Cl)ccc21` (configuration not stated), the TGI was 83.9 µM.
Same read-out and setting: for `[N-]=[N+]=Nc1c(Cl)c(=O)n(-c2ccccc2)c2ccccc12` the value was 34.7 µM.

The subject of the next experiment is OVCAR-3 ovarian. As to the kind of experiment: growth of human tumour cells (NCI), 48 h.
With `O=c1[nH]cnc2c(C3OC(CO)C(O)C3O)c[nH]c12` (configuration not stated), the TGI was > 100 µM.
`CC(C)=CCN1CC(C)C(=O)Nc2cc(Cl)ccc21` (configuration not stated) registered a TGI of 32.9 µM.
Same read-out and setting: for `[N-]=[N+]=Nc1c(Cl)c(=O)n(-c2ccccc2)c2ccccc12` the value was 39 µM.

The test system of another experiment is SK-MEL-5 melanoma. As to the kind of experiment: growth of human tumour cells (NCI), 48 h.
For the molecule `O=c1[nH]cnc2c(C3OC(CO)C(O)C3O)c[nH]c12` (configuration not stated), the TGI is > 100 µM.
Take `CC(C)=CCN1CC(C)C(=O)Nc2cc(Cl)ccc21` (configuration not stated): the TGI was 26.5 µM.
The same measure, in the same setting: the value for `CC(C)(C)OC(=O)NC(Cc1ccc(O)cc1)C(=O)NC(CCCCN)C(=O)NC(Cc1ccc(O)cc1)C(=O)NC(CCCCN)C(=O)ON1C(=O)CCC1=O` (configuration not stated) (Boc-YKYK-OSu; configuration not given here) was > 100 µM; that for `[N-]=[N+]=Nc1c(Cl)c(=O)n(-c2ccccc2)c2ccccc12` was 18.5 µM.

In another experiment the test system is ACHN renal. In words: growth of human tumour cells (NCI), 48 h.
With `O=c1[nH]cnc2c(C3OC(CO)C(O)C3O)c[nH]c12` (configuration not stated), the TGI is > 100 µM.
The same measure, in the same setting: the value for `CC(C)=CCN1CC(C)C(=O)Nc2cc(Cl)ccc21` (configuration not stated) was 67.5 µM; that for `CC(C)(C)OC(=O)NC(Cc1ccc(O)cc1)C(=O)NC(CCCCN)C(=O)NC(Cc1ccc(O)cc1)C(=O)NC(CCCCN)C(=O)ON1C(=O)CCC1=O` (configuration not stated) (Boc-YKYK-OSu; configuration not given here) was > 100 µM.
Still for that read-out and setting: the value for `[N-]=[N+]=Nc1c(Cl)c(=O)n(-c2ccccc2)c2ccccc12` was 49.2 µM.

Another experiment concerns HOP-62 NSCLC. In words: growth of human tumour cells (NCI), 48 h.
Consider `O=c1[nH]cnc2c(C3OC(CO)C(O)C3O)c[nH]c12` (configuration not stated), for which the TGI was > 100 µM.
Still for that read-out and setting: for `CC(C)=CCN1CC(C)C(=O)Nc2cc(Cl)ccc21` (configuration not stated) the value was 81.4 µM; for `CC(C)(C)OC(=O)NC(Cc1ccc(O)cc1)C(=O)NC(CCCCN)C(=O)NC(Cc1ccc(O)cc1)C(=O)NC(CCCCN)C(=O)ON1C(=O)CCC1=O` (configuration not stated) (Boc-YKYK-OSu; configuration not given here), > 100 µM.
Still for that read-out and setting: the value for `[N-]=[N+]=Nc1c(Cl)c(=O)n(-c2ccccc2)c2ccccc12` was 58.6 µM.

A further experiment deals with K-562 leukemia. As to the kind of experiment: growth of human tumour cells (NCI), 48 h.
In the case of `O=c1[nH]cnc2c(C3OC(CO)C(O)C3O)c[nH]c12` (configuration not stated), the TGI is > 100 µM.
Same read-out and setting: for `CC(C)=CCN1CC(C)C(=O)Nc2cc(Cl)ccc21` (configuration not stated) the value was > 100 µM.
Still for that read-out and setting: for `CC(C)(C)OC(=O)NC(Cc1ccc(O)cc1)C(=O)NC(CCCCN)C(=O)NC(Cc1ccc(O)cc1)C(=O)NC(CCCCN)C(=O)ON1C(=O)CCC1=O` (configuration not stated) (Boc-YKYK-OSu; configuration not given here) the value was > 100 µM; for `[N-]=[N+]=Nc1c(Cl)c(=O)n(-c2ccccc2)c2ccccc12`, 49 µM.

The test system of a further experiment is MALME-3M melanoma. As to the kind of experiment: growth of human tumour cells (NCI), 48 h.
As to `O=c1[nH]cnc2c(C3OC(CO)C(O)C3O)c[nH]c12` (configuration not stated), the TGI is > 100 µM.
Still for that read-out and setting: for `CC(C)=CCN1CC(C)C(=O)Nc2cc(Cl)ccc21` (configuration not stated) the value was 62.3 µM.
Consider `CC(C)(C)OC(=O)NC(Cc1ccc(O)cc1)C(=O)NC(CCCCN)C(=O)NC(Cc1ccc(O)cc1)C(=O)NC(CCCCN)C(=O)ON1C(=O)CCC1=O` (configuration not stated) (Boc-YKYK-OSu; configuration not given here), for which the TGI was > 100 µM.
For the molecule `[N-]=[N+]=Nc1c(Cl)c(=O)n(-c2ccccc2)c2ccccc12`, the TGI came to 43.9 µM.

Another experiment deals with IGROV1 ovarian. In words: growth of human tumour cells (NCI), 48 h.
`O=c1[nH]cnc2c(C3OC(CO)C(O)C3O)c[nH]c12` (configuration not stated): the TGI was > 100 µM.
On the same count and under the same terms, the value for `CC(C)=CCN1CC(C)C(=O)Nc2cc(Cl)ccc21` (configuration not stated) was 81.9 µM; that for `CC(C)(C)OC(=O)NC(Cc1ccc(O)cc1)C(=O)NC(CCCCN)C(=O)NC(Cc1ccc(O)cc1)C(=O)NC(CCCCN)C(=O)ON1C(=O)CCC1=O` (configuration not stated) (Boc-YKYK-OSu; configuration not given here) was > 100 µM.
Same read-out and setting: for `[N-]=[N+]=Nc1c(Cl)c(=O)n(-c2ccccc2)c2ccccc12` the value was 30.5 µM.

The test system of another experiment is EKVX NSCLC. As to the kind of experiment: growth of human tumour cells (NCI), 48 h.
For the molecule `O=c1[nH]cnc2c(C3OC(CO)C(O)C3O)c[nH]c12` (configuration not stated), the TGI is > 100 µM.
With `CC(C)=CCN1CC(C)C(=O)Nc2cc(Cl)ccc21` (configuration not stated), the TGI turned out to be 94.8 µM.
For the molecule `CC(C)(C)OC(=O)NC(Cc1ccc(O)cc1)C(=O)NC(CCCCN)C(=O)NC(Cc1ccc(O)cc1)C(=O)NC(CCCCN)C(=O)ON1C(=O)CCC1=O` (configuration not stated) (Boc-YKYK-OSu; configuration not given here), the TGI was > 100 µM.

A further experiment has as its system NCI-H23 lung. As to the kind of experiment: growth of human tumour cells (NCI), 48 h.
On to `O=c1[nH]cnc2c(C3OC(CO)C(O)C3O)c[nH]c12` (configuration not stated), for which the TGI is > 100 µM.
On the same count and under the same terms, the value for `CC(C)=CCN1CC(C)C(=O)Nc2cc(Cl)ccc21` (configuration not stated) was 85.5 µM; that for `CC(C)(C)OC(=O)NC(Cc1ccc(O)cc1)C(=O)NC(CCCCN)C(=O)NC(Cc1ccc(O)cc1)C(=O)NC(CCCCN)C(=O)ON1C(=O)CCC1=O` (configuration not stated) (Boc-YKYK-OSu; configuration not given here) was > 100 µM.
`[N-]=[N+]=Nc1c(Cl)c(=O)n(-c2ccccc2)c2ccccc12` registered a TGI of 36.7 µM.

The subject of another experiment is BT-549 breast. As to the kind of experiment: growth of human tumour cells (NCI), 48 h.
For the molecule `O=c1[nH]cnc2c(C3OC(CO)C(O)C3O)c[nH]c12` (configuration not stated), the TGI is > 100 µM.
The same measure, in the same setting: for `CC(C)=CCN1CC(C)C(=O)Nc2cc(Cl)ccc21` (configuration not stated) the value was 51.6 µM; for `CC(C)(C)OC(=O)NC(Cc1ccc(O)cc1)C(=O)NC(CCCCN)C(=O)NC(Cc1ccc(O)cc1)C(=O)NC(CCCCN)C(=O)ON1C(=O)CCC1=O` (configuration not stated) (Boc-YKYK-OSu; configuration not given here), > 100 µM.
Consider `[N-]=[N+]=Nc1c(Cl)c(=O)n(-c2ccccc2)c2ccccc12`, for which the TGI is 39.2 µM.

The test system of the next experiment is SR leukemia. As to the kind of experiment: growth of human tumour cells (NCI), 48 h.
`O=c1[nH]cnc2c(C3OC(CO)C(O)C3O)c[nH]c12` (configuration not stated): the TGI was > 100 µM.
The same measure, in the same setting: the value for `CC(C)=CCN1CC(C)C(=O)Nc2cc(Cl)ccc21` (configuration not stated) was > 100 µM.
